# Source: ChEMBL document CHEMBL4229518, “New β-lactam - Tetramic acid hybrids show promising antibacterial activities” (Bioorg Med Chem Lett, 2018)
# System: Bacillus subtilis
# Test: Antimicrobial activity against Bacillus subtilis ATCC 23857 after 18 to 20 hrs by microbroth dilution method
# Format: functional
# Details: not given
row,Compound,MIC
1,CC(C)CC1NC(=O)C(C(=O)NCCCC(=O)N[C@@H](C(=O)N[C@@H]2C(=O)N3[C@@H]2SC(C)(C)[C@@H]3C(=O)O)c2ccccc2)=C1O (stereo partly drawn),3.13 µg/mL
2,CC1=C(C(=O)O)N2C(=O)[C@@H](NC(=O)CCNC(=O)C3=C(O)C(CC(C)C)NC3=O)[C@H]2SC1 (stereo partly drawn),100 µg/mL
3,CC1=C(C(=O)O)N2C(=O)[C@@H](NC(=O)[C@H](N)c3ccccc3)[C@H]2SC1 [CEPHALEXIN ANHYDROUS],0.78 µg/mL

# System: Enterobacter cloacae
# Test: Antimicrobial activity against Enterobacter cloacae ATCC 13047 after 18 to 20 hrs by microbroth dilution method
# Format: functional
# Details: subsp. cloacae ATCC 13047
row,Compound,MIC
1,CC(C)CC1NC(=O)C(C(=O)NCCCC(=O)N[C@@H](C(=O)N[C@@H]2C(=O)N3[C@@H]2SC(C)(C)[C@@H]3C(=O)O)c2ccccc2)=C1O (stereo partly drawn),> 200 µg/mL
2,CC1=C(C(=O)O)N2C(=O)[C@@H](NC(=O)CCNC(=O)C3=C(O)C(CC(C)C)NC3=O)[C@H]2SC1 (stereo partly drawn),> 200 µg/mL
3,CC1=C(C(=O)O)N2C(=O)[C@@H](NC(=O)[C@H](N)c3ccccc3)[C@H]2SC1 [CEPHALEXIN ANHYDROUS],> 200 µg/mL

# System: Proteus mirabilis
# Test: Antimicrobial activity against Proteus mirabilis ATCC 25933 after 18 to 20 hrs by microbroth dilution method
# Format: functional
# Details: not given
row,Compound,MIC
1,CC(C)CC1NC(=O)C(C(=O)NCCCC(=O)N[C@@H](C(=O)N[C@@H]2C(=O)N3[C@@H]2SC(C)(C)[C@@H]3C(=O)O)c2ccccc2)=C1O (stereo partly drawn),1.56 µg/mL
2,CC1=C(C(=O)O)N2C(=O)[C@@H](NC(=O)CCNC(=O)C3=C(O)C(CC(C)C)NC3=O)[C@H]2SC1 (stereo partly drawn),> 200 µg/mL
3,CC1=C(C(=O)O)N2C(=O)[C@@H](NC(=O)[C@H](N)c3ccccc3)[C@H]2SC1 [CEPHALEXIN ANHYDROUS],50 µg/mL

# System: Streptococcus pyogenes
# Test: Antimicrobial activity against Streptococcus pyogenes ATCC 700294 after 18 to 20 hrs by microbroth dilution method
# Format: functional
# Details: M1 GAS
row,Compound,MIC
1,CC(C)CC1NC(=O)C(C(=O)NCCCC(=O)N[C@@H](C(=O)N[C@@H]2C(=O)N3[C@@H]2SC(C)(C)[C@@H]3C(=O)O)c2ccccc2)=C1O (stereo partly drawn),0.39 µg/mL
2,CC1=C(C(=O)O)N2C(=O)[C@@H](NC(=O)CCNC(=O)C3=C(O)C(CC(C)C)NC3=O)[C@H]2SC1 (stereo partly drawn),> 200 µg/mL
3,CC1=C(C(=O)O)N2C(=O)[C@@H](NC(=O)[C@H](N)c3ccccc3)[C@H]2SC1 [CEPHALEXIN ANHYDROUS],3.13 µg/mL

# System: Klebsiella pneumoniae
# Test: Antimicrobial activity against Klebsiella pneumoniae ATCC 33495 after 18 to 20 hrs by microbroth dilution method
# Format: functional
# Details: not given
row,Compound,MIC
1,CC(C)CC1NC(=O)C(C(=O)NCCCC(=O)N[C@@H](C(=O)N[C@@H]2C(=O)N3[C@@H]2SC(C)(C)[C@@H]3C(=O)O)c2ccccc2)=C1O (stereo partly drawn),> 200 µg/mL
2,CC1=C(C(=O)O)N2C(=O)[C@@H](NC(=O)CCNC(=O)C3=C(O)C(CC(C)C)NC3=O)[C@H]2SC1 (stereo partly drawn),> 200 µg/mL
3,CC1=C(C(=O)O)N2C(=O)[C@@H](NC(=O)[C@H](N)c3ccccc3)[C@H]2SC1 [CEPHALEXIN ANHYDROUS],50 µg/mL

# System: Bacillus cereus
# Test: Antimicrobial activity against Bacillus cereus ATCC 14579 after 18 to 20 hrs by microbroth dilution method
# Format: functional
# Details: not given
row,Compound,MIC
1,CC(C)CC1NC(=O)C(C(=O)NCCCC(=O)N[C@@H](C(=O)N[C@@H]2C(=O)N3[C@@H]2SC(C)(C)[C@@H]3C(=O)O)c2ccccc2)=C1O (stereo partly drawn),25 µg/mL
2,CC1=C(C(=O)O)N2C(=O)[C@@H](NC(=O)CCNC(=O)C3=C(O)C(CC(C)C)NC3=O)[C@H]2SC1 (stereo partly drawn),> 200 µg/mL
3,CC1=C(C(=O)O)N2C(=O)[C@@H](NC(=O)[C@H](N)c3ccccc3)[C@H]2SC1 [CEPHALEXIN ANHYDROUS],> 200 µg/mL

# System: Enterococcus faecalis
# Test: Antimicrobial activity against Enterococcus faecalis ATCC 33186 after 18 to 20 hrs by microbroth dilution method
# Format: functional
# Details: not given
row,Compound,MIC
1,CC(C)CC1NC(=O)C(C(=O)NCCCC(=O)N[C@@H](C(=O)N[C@@H]2C(=O)N3[C@@H]2SC(C)(C)[C@@H]3C(=O)O)c2ccccc2)=C1O (stereo partly drawn),25 µg/mL
2,CC1=C(C(=O)O)N2C(=O)[C@@H](NC(=O)CCNC(=O)C3=C(O)C(CC(C)C)NC3=O)[C@H]2SC1 (stereo partly drawn),> 200 µg/mL
3,CC1=C(C(=O)O)N2C(=O)[C@@H](NC(=O)[C@H](N)c3ccccc3)[C@H]2SC1 [CEPHALEXIN ANHYDROUS],200 µg/mL

# System: Escherichia coli
# Test: Antimicrobial activity against tolC deficient Escherichia coli JW5503-1 after 18 to 20 hrs by microbroth dilution method
# Format: functional
# Details: not given
row,Compound,MIC
1,CC(C)CC1NC(=O)C(C(=O)NCCCC(=O)N[C@@H](C(=O)N[C@@H]2C(=O)N3[C@@H]2SC(C)(C)[C@@H]3C(=O)O)c2ccccc2)=C1O (stereo partly drawn),12.5 µg/mL
2,CC1=C(C(=O)O)N2C(=O)[C@@H](NC(=O)CCNC(=O)C3=C(O)C(CC(C)C)NC3=O)[C@H]2SC1 (stereo partly drawn),> 200 µg/mL
3,CC1=C(C(=O)O)N2C(=O)[C@@H](NC(=O)[C@H](N)c3ccccc3)[C@H]2SC1 [CEPHALEXIN ANHYDROUS],100 µg/mL

# System: Acinetobacter baumannii
# Test: Antimicrobial activity against Acinetobacter baumannii ATCC 19606 after 18 to 20 hrs by microbroth dilution method
# Format: functional
# Details: ATCC 19606 = CIP 70.34 = JCM 6841
row,Compound,MIC
1,CC(C)CC1NC(=O)C(C(=O)NCCCC(=O)N[C@@H](C(=O)N[C@@H]2C(=O)N3[C@@H]2SC(C)(C)[C@@H]3C(=O)O)c2ccccc2)=C1O (stereo partly drawn),100 µg/mL
2,CC1=C(C(=O)O)N2C(=O)[C@@H](NC(=O)CCNC(=O)C3=C(O)C(CC(C)C)NC3=O)[C@H]2SC1 (stereo partly drawn),> 200 µg/mL
3,CC1=C(C(=O)O)N2C(=O)[C@@H](NC(=O)[C@H](N)c3ccccc3)[C@H]2SC1 [CEPHALEXIN ANHYDROUS],> 200 µg/mL

# System: Streptococcus pneumoniae
# Test: Antimicrobial activity against Streptococcus pneumoniae R6 after 18 to 20 hrs by microbroth dilution method
# Format: functional
# Details: not given
row,Compound,MIC
1,CC(C)CC1NC(=O)C(C(=O)NCCCC(=O)N[C@@H](C(=O)N[C@@H]2C(=O)N3[C@@H]2SC(C)(C)[C@@H]3C(=O)O)c2ccccc2)=C1O (stereo partly drawn),< 0.2 µg/mL
2,CC1=C(C(=O)O)N2C(=O)[C@@H](NC(=O)CCNC(=O)C3=C(O)C(CC(C)C)NC3=O)[C@H]2SC1 (stereo partly drawn),200 µg/mL
3,CC1=C(C(=O)O)N2C(=O)[C@@H](NC(=O)[C@H](N)c3ccccc3)[C@H]2SC1 [CEPHALEXIN ANHYDROUS],6.25 µg/mL

# System: Staphylococcus aureus
# Test: Antimicrobial activity against methicillin-susceptible Staphylococcus aureus NRS70 after 18 to 20 hrs by microbroth dilution method
# Format: functional
# Details: not given
row,Compound,MIC
1,CC(C)CC1NC(=O)C(C(=O)NCCCC(=O)N[C@@H](C(=O)N[C@@H]2C(=O)N3[C@@H]2SC(C)(C)[C@@H]3C(=O)O)c2ccccc2)=C1O (stereo partly drawn),50 µg/mL
2,CC1=C(C(=O)O)N2C(=O)[C@@H](NC(=O)CCNC(=O)C3=C(O)C(CC(C)C)NC3=O)[C@H]2SC1 (stereo partly drawn),100 µg/mL
3,CC1=C(C(=O)O)N2C(=O)[C@@H](NC(=O)[C@H](N)c3ccccc3)[C@H]2SC1 [CEPHALEXIN ANHYDROUS],> 200 µg/mL

# System: Bacillus anthracis
# Test: Antimicrobial activity against Bacillus anthracis Sterne 34F2 after 18 to 20 hrs by microbroth dilution method
# Format: functional
# Details: not given
row,Compound,MIC
1,CC(C)CC1NC(=O)C(C(=O)NCCCC(=O)N[C@@H](C(=O)N[C@@H]2C(=O)N3[C@@H]2SC(C)(C)[C@@H]3C(=O)O)c2ccccc2)=C1O (stereo partly drawn),3.13 µg/mL
2,CC1=C(C(=O)O)N2C(=O)[C@@H](NC(=O)CCNC(=O)C3=C(O)C(CC(C)C)NC3=O)[C@H]2SC1 (stereo partly drawn),200 µg/mL
3,CC1=C(C(=O)O)N2C(=O)[C@@H](NC(=O)[C@H](N)c3ccccc3)[C@H]2SC1 [CEPHALEXIN ANHYDROUS],3.13 µg/mL

# System: Escherichia coli
# Test: Antimicrobial activity against Escherichia coli BW25113 after 18 to 20 hrs by microbroth dilution method
# Format: functional
# Details: not given
row,Compound,MIC
1,CC(C)CC1NC(=O)C(C(=O)NCCCC(=O)N[C@@H](C(=O)N[C@@H]2C(=O)N3[C@@H]2SC(C)(C)[C@@H]3C(=O)O)c2ccccc2)=C1O (stereo partly drawn),25 µg/mL
2,CC1=C(C(=O)O)N2C(=O)[C@@H](NC(=O)CCNC(=O)C3=C(O)C(CC(C)C)NC3=O)[C@H]2SC1 (stereo partly drawn),> 200 µg/mL
3,CC1=C(C(=O)O)N2C(=O)[C@@H](NC(=O)[C@H](N)c3ccccc3)[C@H]2SC1 [CEPHALEXIN ANHYDROUS],50 µg/mL

# System: Staphylococcus aureus
# Test: Antimicrobial activity against methicillin-susceptible Staphylococcus aureus ATCC 29213 after 18 to 20 hrs by microbroth dilution method
# Format: functional
# Details: not given
row,Compound,MIC
1,CC(C)CC1NC(=O)C(C(=O)NCCCC(=O)N[C@@H](C(=O)N[C@@H]2C(=O)N3[C@@H]2SC(C)(C)[C@@H]3C(=O)O)c2ccccc2)=C1O (stereo partly drawn),0.78 µg/mL
2,CC1=C(C(=O)O)N2C(=O)[C@@H](NC(=O)CCNC(=O)C3=C(O)C(CC(C)C)NC3=O)[C@H]2SC1 (stereo partly drawn),50 µg/mL
3,CC1=C(C(=O)O)N2C(=O)[C@@H](NC(=O)[C@H](N)c3ccccc3)[C@H]2SC1 [CEPHALEXIN ANHYDROUS],3.13 µg/mL

# System: Stenotrophomonas maltophilia
# Test: Antimicrobial activity against Stenotrophomonas maltophilia ATCC 700475 after 18 to 20 hrs by microbroth dilution method
# Format: functional
# Details: not given
row,Compound,MIC
1,CC(C)CC1NC(=O)C(C(=O)NCCCC(=O)N[C@@H](C(=O)N[C@@H]2C(=O)N3[C@@H]2SC(C)(C)[C@@H]3C(=O)O)c2ccccc2)=C1O (stereo partly drawn),25 µg/mL
2,CC1=C(C(=O)O)N2C(=O)[C@@H](NC(=O)CCNC(=O)C3=C(O)C(CC(C)C)NC3=O)[C@H]2SC1 (stereo partly drawn),> 200 µg/mL
3,CC1=C(C(=O)O)N2C(=O)[C@@H](NC(=O)[C@H](N)c3ccccc3)[C@H]2SC1 [CEPHALEXIN ANHYDROUS],> 200 µg/mL

# System: Pseudomonas aeruginosa
# Test: Antimicrobial activity against Pseudomonas aeruginosa PAO1 after 18 to 20 hrs by microbroth dilution method
# Format: functional
# Details: not given
row,Compound,MIC
1,CC(C)CC1NC(=O)C(C(=O)NCCCC(=O)N[C@@H](C(=O)N[C@@H]2C(=O)N3[C@@H]2SC(C)(C)[C@@H]3C(=O)O)c2ccccc2)=C1O (stereo partly drawn),50 µg/mL
2,CC1=C(C(=O)O)N2C(=O)[C@@H](NC(=O)CCNC(=O)C3=C(O)C(CC(C)C)NC3=O)[C@H]2SC1 (stereo partly drawn),> 200 µg/mL
3,CC1=C(C(=O)O)N2C(=O)[C@@H](NC(=O)[C@H](N)c3ccccc3)[C@H]2SC1 [CEPHALEXIN ANHYDROUS],> 200 µg/mL
